Results: PubChem BioAssay (NCI)
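96-well plates; 48 h exposure; 5 concentrations. Endpoints by linear interpolation between flanking doses. Not reached: highest tested concentration assigned. Abbreviation: GI50, concentration required for 50% inhibition of growth. TGI: total growth inhibition.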

Legend:
Assay in all cases: DTP human tumour cell line panel, 48 h
[1] = system: OVCAR-8 ovarian
[2] = system: MDA-MB-231 breast
[3] = system: NCI-H460 lung
[4] = system: PC-3 prostate
[5] = system: SF-539 CNS
[6] = system: SF-295 CNS
[7] = system: K-562 leukemia
[8] = system: RPMI-8226 leukemia
[9] = system: UACC-257 melanoma
[10] = system: COLO 205 colon
[11] = system: MALME-3M melanoma
[12] = system: SN12C renal
[13] = system: T-47D breast
[14] = system: U251 CNS
[15] = system: SNB-19 CNS
[16] = system: MCF7 breast
[17] = system: MDA-MB-435
[18] = system: TK-10 renal
[19] = system: OVCAR-4 ovarian
[20] = system: NCI/ADR-RES ovarian
[21] = system: SK-MEL-28 melanoma
[22] = system: HOP-92 NSCLC
[23] = system: ACHN renal
[24] = system: DU-145 prostate
[25] = system: SW-620 colon
[26] = system: HT29 colon
[27] = system: MDA-N
[28] = system: HS 578T breast
[29] = system: HL-60(TB) leukemia
[30] = system: OVCAR-5 ovarian
[31] = system: SK-OV-3 ovarian
[32] = system: M14 melanoma
[33] = system: OVCAR-3 ovarian
[34] = system: HCT-116 colon
[35] = system: RXF 393 renal
[36] = system: HCT-15 colon
[37] = system: 786-0 renal
[38] = system: NCI-H522 lung
[39] = system: MOLT-4 leukemia
[40] = system: UACC-62 melanoma
[41] = system: EKVX NSCLC
[42] = system: KM12 colon
[43] = system: HOP-62 NSCLC
[44] = system: UO-31 renal
[45] = system: SK-MEL-2 melanoma
[46] = system: CAKI-1 renal
[47] = system: IGROV1 ovarian
[48] = system: LOX IMVI melanoma
[49] = system: CCRF-CEM leukemia
[50] = system: BT-549 breast
[51] = system: SR leukemia
[52] = system: NCI-H23 lung
[53] = system: A549 NSCLC
[54] = system: NCI-H226 lung
[55] = system: SK-MEL-5 melanoma
[56] = system: SNB-75 CNS
[57] = system: HCC-2998 colon
[58] = system: SF-268 CNS
[59] = system: A498 renal

O=S(=O)(c1ccc(I)cc1)N(c1ccccc1)S(=O)(=O)C(F)(F)C(F)(F)C(F)(F)C(F)(F)F
TGI [1]: > 100 µM | TGI [2]: > 100 µM | TGI [3]: > 100 µM | TGI [4]: > 100 µM | TGI [5]: > 100 µM | TGI [6]: 71.8 µM | TGI [7]: > 100 µM | TGI [8]: > 100 µM | TGI [9]: > 100 µM | TGI [10]: > 100 µM | TGI [11]: > 100 µM | TGI [12]: > 100 µM | TGI [13]: > 100 µM | TGI [14]: > 100 µM | TGI [15]: > 100 µM | TGI [16]: > 100 µM | TGI [17]: > 100 µM | TGI [18]: 73.5 µM | TGI [19]: 68.1 µM | TGI [20]: > 100 µM | TGI [21]: > 100 µM | TGI [22]: 42 µM | TGI [23]: > 100 µM | TGI [24]: > 100 µM | TGI [25]: > 100 µM | TGI [26]: 51.2 µM | TGI [27]: > 100 µM | TGI [28]: 99.5 µM | TGI [29]: > 100 µM | TGI [30]: 95.4 µM | TGI [31]: 74 µM | TGI [32]: > 100 µM | TGI [33]: 50.9 µM | TGI [34]: 44.6 µM | TGI [35]: 78.6 µM | TGI [36]: > 100 µM | TGI [37]: > 100 µM | TGI [38]: 84.9 µM | TGI [39]: > 100 µM | TGI [40]: > 100 µM | TGI [41]: > 100 µM | TGI [42]: > 100 µM | TGI [43]: 66.6 µM | TGI [44]: > 100 µM | TGI [45]: 90.6 µM | TGI [46]: 98.2 µM | TGI [47]: > 100 µM | TGI [48]: > 100 µM | TGI [49]: > 100 µM | TGI [50]: > 100 µM | TGI [51]: > 100 µM | TGI [52]: > 100 µM | TGI [53]: > 100 µM | TGI [54]: 58 µM

Cc1ccc(S(=O)(=O)N2CCCCN(S(=O)(=O)c3ccc(C)cc3)Cc3ccccc3OCCOCCOc3c4cccc3Cc3cccc5c3OCCOCCOc3ccccc3CN(S(=O)(=O)c3ccc(C)cc3)CCCN(S(=O)(=O)c3ccc(C)cc3)Cc3ccccc3OCCOCCOc3c(cccc3C4)Cc3cccc(c3OCCOCCOc3ccccc3C2)C5)cc1
TGI [1]: > 100 µM | TGI [2]: > 100 µM | TGI [3]: > 100 µM | TGI [4]: > 100 µM | TGI [5]: > 100 µM | TGI [6]: > 100 µM | TGI [7]: > 100 µM | TGI [8]: > 100 µM | TGI [9]: > 100 µM | TGI [10]: > 100 µM | TGI [11]: > 100 µM | TGI [12]: > 100 µM | TGI [13]: > 100 µM | TGI [14]: > 100 µM | TGI [15]: > 100 µM | TGI [16]: > 100 µM | TGI [17]: > 100 µM | TGI [18]: > 100 µM | TGI [19]: > 100 µM | TGI [20]: > 100 µM | TGI [55]: > 100 µM | TGI [22]: > 100 µM | TGI [23]: > 100 µM | TGI [24]: > 100 µM | TGI [25]: > 100 µM | TGI [26]: > 100 µM | TGI [27]: > 100 µM | TGI [28]: > 100 µM | TGI [30]: > 100 µM | TGI [31]: > 100 µM | TGI [32]: > 100 µM | TGI [33]: > 100 µM | TGI [34]: > 100 µM | TGI [35]: > 100 µM | TGI [36]: > 100 µM | TGI [37]: > 100 µM | TGI [56]: > 100 µM | TGI [57]: > 100 µM | TGI [58]: > 100 µM | TGI [38]: > 100 µM | TGI [39]: > 100 µM | TGI [40]: > 100 µM | TGI [41]: > 100 µM | TGI [59]: > 100 µM | TGI [42]: > 100 µM | TGI [43]: > 100 µM | TGI [44]: > 100 µM | TGI [45]: > 100 µM | TGI [46]: > 100 µM | TGI [47]: > 100 µM | TGI [48]: > 100 µM | TGI [49]: > 100 µM | TGI [50]: > 100 µM | TGI [52]: > 100 µM | TGI [53]: > 100 µM | TGI [54]: > 100 µM

C[C@H]1CCC/C=C/[C@@H]2C[C@H](O)C[C@H]2[C@H](O)[C@@H](S(=O)CCN(C)C)CC(=O)O1 (some centres not stated)
GI50 [1]: 0.0966 µM | GI50 [2]: 0.114 µM | TGI [2]: 0.458 µM | GI50 [3]: 0.351 µM | TGI [3]: > 100 µM | GI50 [4]: 0.26 µM | TGI [4]: > 23.2 µM | GI50 [5]: 0.151 µM | TGI [5]: > 100 µM | GI50 [6]: 0.524 µM | TGI [6]: > 100 µM | GI50 [7]: 0.633 µM | TGI [7]: > 100 µM | GI50 [8]: 0.387 µM | GI50 [9]: 0.0904 µM | TGI [9]: > 100 µM | GI50 [10]: 0.107 µM | TGI [10]: 0.876 µM | GI50 [11]: 0.174 µM | TGI [11]: 0.42 µM | GI50 [12]: 0.256 µM | GI50 [13]: 0.338 µM | GI50 [14]: 0.498 µM | TGI [14]: > 100 µM | TGI [15]: > 100 µM | GI50 [16]: 0.147 µM | GI50 [17]: 0.193 µM | TGI [17]: > 100 µM | GI50 [18]: 0.468 µM | TGI [18]: > 100 µM | GI50 [19]: 0.219 µM | TGI [19]: > 100 µM | GI50 [20]: 0.0629 µM | TGI [20]: > 100 µM | GI50 [21]: 0.586 µM | TGI [21]: > 100 µM | GI50 [55]: 0.0374 µM | TGI [55]: 0.131 µM | GI50 [22]: 4.99 µM | TGI [22]: > 100 µM | GI50 [23]: 0.428 µM | GI50 [24]: 0.555 µM | TGI [24]: > 100 µM | GI50 [25]: 0.277 µM | GI50 [26]: 0.114 µM | TGI [26]: 0.293 µM | GI50 [27]: 0.228 µM | TGI [27]: > 100 µM | GI50 [28]: 0.0646 µM | TGI [28]: > 40.8 µM | GI50 [29]: 0.303 µM | TGI [29]: > 100 µM | GI50 [30]: 0.367 µM | TGI [30]: > 100 µM | GI50 [31]: 0.295 µM | TGI [31]: > 67.6 µM | GI50 [32]: 0.111 µM | TGI [32]: > 59.3 µM | GI50 [33]: 0.115 µM | GI50 [34]: 0.279 µM | TGI [34]: 1.19 µM | GI50 [35]: 0.0542 µM | TGI [35]: > 100 µM | GI50 [36]: 0.363 µM | TGI [36]: > 57.9 µM | GI50 [37]: 0.0416 µM | GI50 [56]: 0.0332 µM | GI50 [57]: 0.386 µM | TGI [57]: > 100 µM | GI50 [58]: 0.0564 µM | GI50 [38]: 0.0677 µM | TGI [38]: 0.191 µM | GI50 [39]: 0.349 µM | GI50 [40]: 0.0667 µM | TGI [40]: > 100 µM | GI50 [41]: 0.384 µM | GI50 [59]: 0.116 µM | GI50 [42]: 0.0351 µM | TGI [42]: 0.154 µM | GI50 [43]: 0.458 µM | TGI [43]: > 63.4 µM | GI50 [44]: 0.184 µM | TGI [44]: > 100 µM | GI50 [45]: 0.223 µM | GI50 [46]: 0.389 µM | GI50 [47]: 0.337 µM | GI50 [48]: 0.0697 µM | TGI [48]: > 100 µM | GI50 [49]: 0.388 µM | TGI [49]: > 100 µM | GI50 [50]: 0.202 µM | GI50 [52]: 0.229 µM | TGI [52]: > 38.8 µM | GI50 [53]: 0.178 µM | TGI [53]: > 100 µM | GI50 [54]: 0.0562 µM | TGI [54]: > 100 µM
